In patent US11662349B2, “Carbohydrate sensors” (Commonwealth Scientific and Industrial Research Organisation, priority 2017, dated 2023):
Where “and” joins values, the source holds several entries; their conditions need not be identical. Identical values can stand only once.

Key:
[1] = biological target: LacF1 sensor, His6-CFP-BgaR-YFP fusion protein, SEQ ID NO: 23 (BgaR from Clostridium perfringins strain 13, SEQ ID NO: 1) (Clostridium perfringens, UniProt Q8XMB9); assay type: binding
[2] = biological target: LacB1 sensor, GFP^2-BgaR-RLuc8 fusion protein, SEQ ID NO: 15 (BgaR from Clostridium perfringins strain 13, SEQ ID NO: 1) (Clostridium perfringens, UniProt Q8XMB9); test: biochemical; assay type: binding

## OC[C@H]1O[C@@H](O[C@H]2[C@H](O)[C@@H](O)C(O)O[C@@H]2CO)[C@H](O)[C@@H](O)[C@H]1O (stereo partly drawn) [lactose, β-D-galactosyl-(1→4)-D-glucose]
[1]
  RET ratio in the presence of lactose: 1.089±0.004
  decrease in RET ratio: 10%
[2]
  RET ratio in the presence of lactose: 0.800±0.003
  change in BRET^2 ratio: approximately 35%
  drop in RET ratio: 27%
[2]; EC50 (lactose)
  EC50: 12 µM and 21 µM and 11 to 14 µM and 18 to 23 µM

## OC[C@H]1OC(O)[C@H](O)[C@@H](O)[C@@H]1O (some centres unmarked) [glucose]
[2]
  change in BRET^2 ratio: 9% and 6%

## OC[C@H]1OC(O)[C@H](O)[C@@H](O)[C@H]1O (some centres unmarked) [galactose]
[2]
  change in BRET^2 ratio: 3% and 13%

## OC[C@H]1O[C@@H](O[C@@H]2[C@@H](CO)OC(O)(CO)[C@H]2O)[C@H](O)[C@@H](O)[C@H]1O (stereo partly drawn) [lactulose, 4-O-β-D-galactosyl-D-fructose]
[2]
  affinity of LacB1 for lactulose weaker than for lactose: approximately 150 fold
  change in BRET^2 ratio: approximately 21%
  difference in EC50 between lactose and lactulose: 200 fold
  limit of detection (LOD), lactulose: 0.1 mM
  limit of detection for lactulose higher than for lactose: 100 fold
[2]; EC50 (lactulose)
  EC50: 2400 ± 200 µM
